Earlier results on one compound are cited in publication PMC9389804 (Journal of Hematology & Oncology, 2022).

Details of the series: method as in PMID 29567798. The conditions noted are these: median follow-up of 5 years; cited from earlier work.

On to `Cc1ccc(C(=O)Nc2ccc(CN3CCN(C)CC3)c(C(F)(F)F)c2)cc1C#Cc1cnc2cccnn12` [ponatinib], for which the “incidence of arterial occlusive and venous thrombotic events” value is 31.0%.
